Data as given in ChEMBL document CHEMBL1140062, “Inactivation of NF-kappaB components by covalent binding of (-)-dehydroxymethylepoxyquinomicin to specific cysteine residues” (J Med Chem, 2008).
The source made the active and inactive calls. The rule behind the calls is not given here.

Experiments:
[1] = Inhibition of DNA binding activity of wild type NF-kappaB cRel (1-307) by MALDI-TOF MS analysis
[2] = biological target: Transcription factor p65 (Homo sapiens) (UniProt Q04206); assay: Inhibition of TNF-alpha-stimulated DNA binding activity of wild type NF-kappaB p65 expressed in HeLa cells at 10 ug/mL by EMSA; assay type: cell-based
[3] = Inhibition of DNA binding activity of NF-kappaB p65 (1-325) Rel subunit at 20 uM by EMSA
[4] = system: T1, Proto-oncogene c-Rel (Homo sapiens), Q04864 [C27S]; assay: Inhibition of DNA binding activity of NF-kappaB cRel (1-307) C27S mutant by MALDI-TOF MS analysis
T1 sequence (whole entry): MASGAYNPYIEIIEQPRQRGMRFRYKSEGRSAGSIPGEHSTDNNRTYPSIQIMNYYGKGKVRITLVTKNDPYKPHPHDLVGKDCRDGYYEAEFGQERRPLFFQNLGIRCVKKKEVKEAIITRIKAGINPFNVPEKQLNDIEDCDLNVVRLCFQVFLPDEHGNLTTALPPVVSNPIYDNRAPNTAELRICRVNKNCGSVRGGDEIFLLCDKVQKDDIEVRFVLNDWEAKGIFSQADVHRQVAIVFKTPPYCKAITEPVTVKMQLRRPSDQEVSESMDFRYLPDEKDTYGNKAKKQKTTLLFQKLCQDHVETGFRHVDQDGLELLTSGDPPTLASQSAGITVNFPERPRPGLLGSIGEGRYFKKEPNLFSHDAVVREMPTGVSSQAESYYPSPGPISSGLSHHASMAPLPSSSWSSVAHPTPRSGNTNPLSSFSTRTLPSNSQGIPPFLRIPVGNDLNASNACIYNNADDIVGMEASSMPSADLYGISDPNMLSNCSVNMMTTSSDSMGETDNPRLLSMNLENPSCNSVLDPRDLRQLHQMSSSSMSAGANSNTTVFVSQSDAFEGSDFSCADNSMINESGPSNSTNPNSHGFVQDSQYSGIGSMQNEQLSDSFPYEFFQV

[5] = system: T1, Proto-oncogene c-Rel (Homo sapiens), Q04864 [C27S]; assay: Inhibition of DNA binding activity of NF-kappaB cRel (1-307) C27S mutant
HeLa [6] = assay: Decrease of TNF-alpha-stimulated endogenous NF-kappaB p65 level in human HeLa cell nucleus at 10 ug/mL by Western blot analysis; assay type: functional, cell-based
[7] = system: Transcription factor p65 (Homo sapiens), Q04206 [C38S]; assay: Inhibition of DNA binding activity of NF-kappaB p65 (1-325) C38S mutant by EMSA
[8] = biological target: T2, Nuclear factor NF-kappa-B p105 subunit (Homo sapiens) (UniProt P19838); assay: Inhibition of DNA binding activity of wild type NF-kappaB p50 by MALDI-TOF MS analysis
T2 sequence (whole entry): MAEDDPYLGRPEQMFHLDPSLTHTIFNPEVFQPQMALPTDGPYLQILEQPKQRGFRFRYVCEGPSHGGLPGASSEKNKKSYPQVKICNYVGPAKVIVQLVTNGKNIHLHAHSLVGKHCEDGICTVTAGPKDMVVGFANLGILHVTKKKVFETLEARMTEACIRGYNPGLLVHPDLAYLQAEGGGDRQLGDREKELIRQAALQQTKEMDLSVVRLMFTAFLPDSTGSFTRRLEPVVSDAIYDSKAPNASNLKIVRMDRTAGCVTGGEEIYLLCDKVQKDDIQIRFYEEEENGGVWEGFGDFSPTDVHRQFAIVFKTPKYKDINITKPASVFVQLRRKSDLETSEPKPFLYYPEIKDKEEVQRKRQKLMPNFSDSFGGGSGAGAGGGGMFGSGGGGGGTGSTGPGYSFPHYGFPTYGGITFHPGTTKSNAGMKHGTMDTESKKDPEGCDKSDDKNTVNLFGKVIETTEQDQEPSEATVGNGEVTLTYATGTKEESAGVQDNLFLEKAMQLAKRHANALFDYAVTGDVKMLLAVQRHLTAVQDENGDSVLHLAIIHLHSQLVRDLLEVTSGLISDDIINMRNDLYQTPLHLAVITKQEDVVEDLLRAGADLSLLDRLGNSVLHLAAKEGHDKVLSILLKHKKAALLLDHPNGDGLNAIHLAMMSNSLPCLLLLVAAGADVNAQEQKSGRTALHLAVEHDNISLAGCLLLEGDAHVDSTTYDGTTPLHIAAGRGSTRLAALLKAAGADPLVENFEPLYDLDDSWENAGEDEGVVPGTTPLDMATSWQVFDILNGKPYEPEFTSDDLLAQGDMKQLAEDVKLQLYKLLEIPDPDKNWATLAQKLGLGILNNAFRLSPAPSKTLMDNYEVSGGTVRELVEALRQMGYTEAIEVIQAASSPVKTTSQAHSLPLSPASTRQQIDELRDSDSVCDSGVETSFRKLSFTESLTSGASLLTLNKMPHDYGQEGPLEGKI

[9] = Inhibition of DNA binding activity of NF-kappaB p50 C144S mutant by MALDI-TOF MS analysis
[10] = system: Transcription factor p65 (Homo sapiens), Q04206 [C38S]; assay: Inhibition of TNF-alpha-stimulated DNA binding activity of NF-kappaB p65 C38S mutant expressed in HeLa cells at 10 ug/mL hrs by EMSA; assay type: cell-based
[11] = system: Transcription factor p65 (Homo sapiens), Q04206 [C120S]; assay: Inhibition of DNA binding activity of NF-kappaB p65 (1-325) C120S mutant by EMSA
Albumin = Albumin (Bos taurus, UniProt P02769); assay: Binding affinity to bovine serum albumin; assay type: ADME; conditions: cattle, isolated protein
[12] = biological target: T3, Nuclear factor NF-kappa-B p100 subunit (Homo sapiens) (UniProt Q00653); assay: Inhibition of DNA binding activity of NF-kappaB p52
T3 sequence (whole entry): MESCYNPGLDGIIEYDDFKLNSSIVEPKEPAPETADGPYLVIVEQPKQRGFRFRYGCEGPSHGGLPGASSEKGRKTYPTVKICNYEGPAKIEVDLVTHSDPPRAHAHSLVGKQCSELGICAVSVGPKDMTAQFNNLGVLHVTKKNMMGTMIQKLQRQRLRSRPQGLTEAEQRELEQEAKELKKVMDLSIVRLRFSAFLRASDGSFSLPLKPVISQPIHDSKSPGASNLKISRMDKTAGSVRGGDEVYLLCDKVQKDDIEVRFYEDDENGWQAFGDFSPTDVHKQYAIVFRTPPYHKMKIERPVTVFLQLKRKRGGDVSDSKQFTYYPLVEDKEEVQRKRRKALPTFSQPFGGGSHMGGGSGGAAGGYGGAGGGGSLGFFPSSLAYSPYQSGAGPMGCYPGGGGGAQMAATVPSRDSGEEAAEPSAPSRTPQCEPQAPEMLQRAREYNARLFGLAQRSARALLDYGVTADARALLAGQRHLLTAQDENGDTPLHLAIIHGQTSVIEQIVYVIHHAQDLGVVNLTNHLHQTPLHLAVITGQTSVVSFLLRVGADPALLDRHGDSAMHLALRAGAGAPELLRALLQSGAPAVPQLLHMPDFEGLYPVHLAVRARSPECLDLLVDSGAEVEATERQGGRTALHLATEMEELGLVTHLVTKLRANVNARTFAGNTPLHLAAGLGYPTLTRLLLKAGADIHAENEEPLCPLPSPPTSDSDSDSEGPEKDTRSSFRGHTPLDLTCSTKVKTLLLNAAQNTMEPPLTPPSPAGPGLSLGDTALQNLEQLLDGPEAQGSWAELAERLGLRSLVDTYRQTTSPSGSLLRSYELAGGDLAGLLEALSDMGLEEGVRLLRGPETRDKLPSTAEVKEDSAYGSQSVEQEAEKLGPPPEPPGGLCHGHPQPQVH

[13] = Inhibition of DNA binding activity of NF-kappaB p50 C62S mutant by MALDI-TOF MS analysis
[14] = Binding affinity to NF-kappaB p65 (1-325) Rel subunit at 100 uM by surface plasmon resonance analysis
[15] = biological target: T2, Nuclear factor NF-kappa-B p105 subunit (Homo sapiens); assay: Inhibition of DNA binding activity of wild type NF-kappaB p50
HeLa [16] = assay: Decrease of TNF-alpha-stimulated wild type NF-kappaB p65 level in human HeLa cell nucleus at 10 ug/mL by Western blot analysis; assay type: functional, cell-based
[17] = system: Transcription factor p65 (Homo sapiens), Q04206 [C38S]; assay: Inhibition of DNA binding activity of full-length recombinant NF-kappaB p65 Rel subunit C38S mutant at 10 uM by EMSA
[18] = Inhibition of DNA binding activity of wild type NF-kappaB cRel (1-307)
[19] = system: Transcription factor p65 (Homo sapiens), Q04206 [C38S]; assay: Inhibition of DNA binding activity of NF-kappaB p65 (1-325) C38S mutant by MALDI-TOF MS analysis
[20] = Inhibition of DNA binding activity of NF-kappaB p50 C62S mutant
[21] = biological target: Transcription factor p65 (Homo sapiens) (UniProt Q04206); assay: Inhibition of DNA binding activity of full-length recombinant NF-kappaB p65 Rel subunit at 10 uM by EMSA
[22] = system: Transcription factor p65 (Homo sapiens), Q04206 [C120S]; assay: Inhibition of DNA binding activity of NF-kappaB p65 (1-325) C120S mutant by MALDI-TOF MS analysis
HeLa [23] = assay: Decrease of TNF-alpha-stimulated NF-kappaB p65 C38S mutant level in human HeLa cell nucleus at 10 ug/mL by Western blot analysis; assay type: functional, cell-based

Chain of Transcription factor p65 (Homo sapiens), Q04206 [C38S] (Q04206 whole entry C38S): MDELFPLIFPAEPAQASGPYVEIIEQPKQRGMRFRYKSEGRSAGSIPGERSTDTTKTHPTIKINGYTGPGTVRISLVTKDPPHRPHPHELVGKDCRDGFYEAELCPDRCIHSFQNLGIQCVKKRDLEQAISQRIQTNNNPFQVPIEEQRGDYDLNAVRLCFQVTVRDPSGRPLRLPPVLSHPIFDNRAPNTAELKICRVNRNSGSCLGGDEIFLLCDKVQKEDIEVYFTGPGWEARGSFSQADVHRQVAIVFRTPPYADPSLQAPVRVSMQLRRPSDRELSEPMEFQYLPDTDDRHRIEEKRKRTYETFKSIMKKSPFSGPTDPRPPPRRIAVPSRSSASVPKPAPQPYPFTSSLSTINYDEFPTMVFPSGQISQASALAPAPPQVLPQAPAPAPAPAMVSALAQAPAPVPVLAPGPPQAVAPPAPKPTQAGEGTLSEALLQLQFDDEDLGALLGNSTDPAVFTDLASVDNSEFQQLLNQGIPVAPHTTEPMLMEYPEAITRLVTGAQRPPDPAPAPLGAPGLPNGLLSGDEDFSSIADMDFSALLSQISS
Chain of Transcription factor p65 (Homo sapiens), Q04206 [C120S] (Q04206 whole entry C120S): as the sequence (Q04206 whole entry C38S) above, with S38C, C120S counted along it
Chain of Transcription factor p65 (Homo sapiens) (Q04206 whole entry): as the sequence (Q04206 whole entry C38S) above, with S38C counted along it
Chain of Albumin (P02769 whole entry): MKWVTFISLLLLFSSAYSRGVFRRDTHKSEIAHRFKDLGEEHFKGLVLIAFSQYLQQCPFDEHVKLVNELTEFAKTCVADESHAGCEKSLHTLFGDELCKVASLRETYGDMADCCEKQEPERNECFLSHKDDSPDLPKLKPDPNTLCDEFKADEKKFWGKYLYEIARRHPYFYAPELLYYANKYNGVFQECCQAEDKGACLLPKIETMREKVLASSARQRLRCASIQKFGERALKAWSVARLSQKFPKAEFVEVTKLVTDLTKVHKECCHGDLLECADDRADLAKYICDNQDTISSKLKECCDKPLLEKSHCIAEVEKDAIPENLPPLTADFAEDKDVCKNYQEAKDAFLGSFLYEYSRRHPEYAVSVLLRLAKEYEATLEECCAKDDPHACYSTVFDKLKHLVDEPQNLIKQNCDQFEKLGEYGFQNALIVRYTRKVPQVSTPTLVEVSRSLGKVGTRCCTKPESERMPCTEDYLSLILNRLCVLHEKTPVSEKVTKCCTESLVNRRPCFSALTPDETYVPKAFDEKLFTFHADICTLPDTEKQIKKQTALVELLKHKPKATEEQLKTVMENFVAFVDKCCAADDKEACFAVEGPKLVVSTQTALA

Activity [1]: Active | Activity [2]: Active | Activity [3]: Active | Activity [4]: inactive | Activity [5]: inactive | Activity [7]: inactive | Activity [8]: Active | Activity [9]: inactive | Activity [10]: inactive | Activity [11]: Active | Activity (Albumin): Not Active | Activity [12]: inactive | Activity [13]: inactive | Activity [14]: Active | Activity [15]: Active | Activity [17]: inactive | Activity [18]: Active | Activity [19]: inactive | Activity [20]: inactive | Activity [21]: inactive | Activity [22]: Active
SMILES: O=C(NC1=CC(=O)[C@H]2O[C@H]2[C@H]1O)c1ccccc1O [DEHYDROXYMETHYLEPOXYQUINOMICIN]
Activity (HeLa [6]): Active | Activity (HeLa [16]): Active | Activity (HeLa [23]): inactive
